Test results taken from publication PMC7772550 (Heliyon, 2020).

Tested on: NO production
Assay: nitric oxide
Format: cell-based
Conditions: read-out: NO production inhibition IC50

IC50: 32.2 µM
SMILES: COc1ccc2c(c1)c(CC(=O)O)c(C)n2C(=O)c1ccc(Cl)cc1 [Indomethacin]
